Experimental data published in patent publication US20250034136A1 (Nimbus Wadjet, Inc., priority 2023, published 2025).
Read-outs that look alike come from different tables or passages of the source.

Tests used:
[1] = target: WRN (BV08), human Werner helicase (Uniprot Q14191, amino acids 517-1235 with L1074F point mutation) (Homo sapiens (Human), UniProt Q14191, L1074F); assay: WRN (BV08) ADP-Glo assay; assay type: biochemical; details: class symbols A-E, read-out: ADP-Glo_hWRN_IC50
[2] = system: p21 induction in HCT116 cells; assay: p21 induction in HCT116 cells; assay type: cell-based; details: Homo sapiens, HCT-116, 24 h, read-out: P21_EC50
In short: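 HCT116 cells, 2,000/well, treated 24 h at 37 °C with 11-point compound dilutions in duplicate. Fixed, then immunostained for p21 and GAPDH and read by near-IR imaging at 800/700 nm. Normalized to DMSO (low) and reference WRN inhibitor (high) controls; EC50 from non-linear regression.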

[3] = HCT116 cells, 24 h compound incubation

Chain of WRN (BV08), human Werner helicase (Uniprot Q14191, amino acids 517-1235 with L1074F point mutation) (Q14191 other isoform, or with tags, fused parts or gaps L1074F (already in the parent)): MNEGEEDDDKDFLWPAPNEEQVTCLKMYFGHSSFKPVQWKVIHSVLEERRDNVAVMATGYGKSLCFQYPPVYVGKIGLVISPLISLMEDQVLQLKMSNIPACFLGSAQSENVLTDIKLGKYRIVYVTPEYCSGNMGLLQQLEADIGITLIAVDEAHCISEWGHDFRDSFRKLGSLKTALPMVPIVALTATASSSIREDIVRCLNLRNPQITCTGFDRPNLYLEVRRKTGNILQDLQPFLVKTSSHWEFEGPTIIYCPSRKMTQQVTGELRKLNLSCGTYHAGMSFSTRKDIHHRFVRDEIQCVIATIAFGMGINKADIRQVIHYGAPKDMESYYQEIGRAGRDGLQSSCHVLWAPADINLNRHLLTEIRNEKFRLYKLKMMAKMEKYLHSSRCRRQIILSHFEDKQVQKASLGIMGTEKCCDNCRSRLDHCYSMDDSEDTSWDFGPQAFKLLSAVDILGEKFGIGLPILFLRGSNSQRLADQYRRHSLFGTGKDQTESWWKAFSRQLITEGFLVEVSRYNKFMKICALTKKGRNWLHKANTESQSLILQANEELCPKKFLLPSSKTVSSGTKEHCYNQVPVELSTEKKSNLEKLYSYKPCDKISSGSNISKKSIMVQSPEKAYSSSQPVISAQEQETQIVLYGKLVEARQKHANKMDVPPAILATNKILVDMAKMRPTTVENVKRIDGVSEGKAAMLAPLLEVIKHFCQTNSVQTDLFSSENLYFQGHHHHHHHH

Compound	IC50 [1] [nM]	EC50 [2, 3] [nM]	EC50 [2] [nM]
CCc1c(N2CCN(C(=O)c3ncnc(C)c3O)CC2)c(=O)c2nc(OC(F)F)cnc2n1CC(=O)Nc1ccc(C(F)(F)F)cc1Cl [I-26, N-(2-chloro-4-(trifluoromethyl)phenyl)-2-(2-(difluoromethoxy)-6-ethyl-7-(4-(5-hydroxy-6-methylpyrimidine-4-carbonyl)piperazin-1-yl)-8-oxopyrido[2,3-b]pyrazin-5(8H)-yl)acetamide]	100 to 500	> 5000	
CCc1c(N2CCN(C(=O)c3ncnc(C)c3O)CC2)c(=O)c2nc(N3CCCC3=O)cnc2n1CC(=O)Nc1ccc(C(F)(F)F)cc1Cl [I-27, N-(2-chloro-4-(trifluoromethyl)phenyl)-2-(6-ethyl-7-(4-(5-hydroxy-6-methylpyrimidine-4-carbonyl)piperazin-1-yl)-8-oxo-2-(2-oxopyrrolidin-1-yl)pyrido[2,3-b]pyrazin-5(8H)-yl)acetamide]	5 to 50	> 5000	
CCc1c(N2CCN(C(=O)c3ncnc(C)c3O)CC2)c(=O)c2nc(N(C)C)c(C)nc2n1CC(=O)Nc1ccc(C(F)(F)F)cc1Cl [I-29, N-(2-chloro-4-(trifluoromethyl)phenyl)-2-(2-(dimethylamino)-6-ethyl-7-(4-(5-hydroxy-6-methylpyrimidine-4-carbonyl)piperazin-1-yl)-3-methyl-8-oxopyrido[2,3-b]pyrazin-5(8H)-yl)acetamide]	5 to 50		500 to 2000
CCc1c(N2CCN(C(=O)c3ncnc(C)c3O)CC2)c(=O)c2nc(N(C)C(C)=O)cnc2n1CC(=O)Nc1ccc(C(F)(F)F)cc1Cl [I-30, N-(2-chloro-4-(trifluoromethyl)phenyl)-2-(6-ethyl-7-(4-(5-hydroxy-6-methylpyrimidine-4-carbonyl)piperazin-1-yl)-2-(N-methylacetamido)-8-oxopyrido[2,3-b]pyrazin-5(8H)-yl)acetamide]	50 to 100	> 5000	
CCc1c(N2CCN(C(=O)c3ncnc(C)c3O)CC2)c(=O)c2nc(/C=C3/CCOC3)cnc2n1CC(=O)Nc1ccc(C(F)(F)F)cc1Cl [I-35, N-(2-chloro-4-(trifluoromethyl)phenyl)-2-(2-((dihydrofuran-3(2H)-ylidene)methyl)-6-ethyl-7-(4-(5-hydroxy-6-methylpyrimidine-4-carbonyl)piperazin-1-yl)-8-oxopyrido[2,3-b]pyrazin-5(8H)-yl)acetamide]	5 to 50	2000 to 5000	
CCc1c(N2CCN(C(=O)c3ncnc(C)c3O)CC2)c(=O)c2nc(C=C3CCC3)cnc2n1CC(=O)Nc1ccc(C(F)(F)F)cc1Cl [I-38, N-(2-chloro-4-(trifluoromethyl)phenyl)-2-(2-(cyclobutylidenemethyl)-6-ethyl-7-(4-(5-hydroxy-6-methylpyrimidine-4-carbonyl)piperazin-1-yl)-8-oxopyrido[2,3-b]pyrazin-5(8H)-yl)acetamide]	≤ 5	< 500	
CCc1c(N2CCN(C(=O)c3ncnc(C)c3O)CC2)c(=O)c2ncc(Cl)nc2n1CC(=O)Nc1ccc(C(F)(F)F)cc1Cl [I-43, N-(2-chloro-4-(trifluoromethyl)phenyl)-2-(3-chloro-6-ethyl-7-(4-(5-hydroxy-6-methylpyrimidine-4-carbonyl)piperazin-1-yl)-8-oxopyrido[2,3-b]pyrazin-5(8H)-yl)acetamide]	100 to 500	> 5000	
CCc1c(N2CCN(C(=O)c3ncnc(C)c3O)CC2)c(=O)c2nccnc2n1CC(=O)Nc1ccc(C(F)(F)F)cc1Cl [I-46, N-(2-chloro-4-(trifluoromethyl)phenyl)-2-(6-ethyl-7-(4-(5-hydroxy-6-methylpyrimidine-4-carbonyl)piperazin-1-yl)-8-oxopyrido[2,3-b]pyrazin-5(8H)-yl)acetamide]	5 to 50	> 5000	
CCc1c(N2CCN(C(=O)c3ncnc(C)c3O)CC2)c(=O)c2nc(N3CCC(C)(O)C3)cnc2n1CC(=O)Nc1ccc(C(F)(F)F)cc1Cl (stereo not drawn) [I-47, N-(2-chloro-4-(trifluoromethyl)phenyl)-2-(6-ethyl-2-(3-hydroxy-3-methylpyrrolidin-1-yl)-7-(4-(5-hydroxy-6-methylpyrimidine-4-carbonyl)piperazin-1-yl)-8-oxopyrido[2,3-b]pyrazin-5(8H)-yl)acetamide]	5 to 50	> 5000	

Continued, in another order:

IC50 [1] [nM]	EC50 [2, 3] [nM]	Compound	EC50 [2] [nM]
5 to 50	> 5000	CCc1c(N2CCN(C(=O)c3ncnc(C)c3O)CC2)c(=O)c2nc(C(F)F)c(C)nc2n1CC(=O)Nc1ccc(C(F)(F)F)cc1Cl [I-28, N-(2-chloro-4-(trifluoromethyl)phenyl)-2-(2-(difluoromethyl)-6-ethyl-7-(4-(5-hydroxy-6-methylpyrimidine-4-carbonyl)piperazin-1-yl)-3-methyl-8-oxopyrido[2,3-b]pyrazin-5(8H)-yl)acetamide]	
5 to 50	> 5000	CCc1c(N2CCN(C(=O)c3ncnc(C)c3O)CC2)c(=O)c2nc(NC(C)=O)cnc2n1CC(=O)Nc1ccc(C(F)(F)F)cc1Cl [I-31, 2-(2-acetamido-6-ethyl-7-(4-(5-hydroxy-6-methylpyrimidine-4-carbonyl)piperazin-1-yl)-8-oxopyrido[2,3-b]pyrazin-5(8H)-yl)-N-(2-chloro-4-(trifluoromethyl)phenyl)acetamide]	
50 to 100	> 5000	CCc1c(N2CCN(C(=O)c3[nH]nc(C)c3O)CC2)c(=O)c2ncc(C)nc2n1CC(=O)Nc1ccc(C(F)(F)F)cc1Cl [I-32, N-(2-chloro-4-(trifluoromethyl)phenyl)-2-(6-ethyl-7-(4-(4-hydroxy-3-methyl-1H-pyrazole-5-carbonyl)piperazin-1-yl)-3-methyl-8-oxopyrido[2,3-b]pyrazin-5(8H)-yl)acetamide]	
5 to 50	> 5000	CCc1c(N2CCN(C(=O)c3ccc4cn[nH]c4c3O)CC2)c(=O)c2ncc(C)nc2n1CC(=O)Nc1ccc(C(F)(F)F)cc1Cl [I-33, N-(2-chloro-4-(trifluoromethyl)phenyl)-2-(6-ethyl-7-(4-(7-hydroxy-1H-indazole-6-carbonyl)piperazin-1-yl)-3-methyl-8-oxopyrido[2,3-b]pyrazin-5(8H)-yl)acetamide]	
5 to 50	2000 to 5000	CCc1c(N2CCN(C(=O)c3ncnc(C)c3O)CC2)c(=O)c2nc(C=C3CCOCC3)cnc2n1CC(=O)Nc1ccc(C(F)(F)F)cc1Cl [I-36, N-(2-chloro-4-(trifluoromethyl)phenyl)-2-(6-ethyl-7-(4-(5-hydroxy-6-methylpyrimidine-4-carbonyl)piperazin-1-yl)-8-oxo-2-((tetrahydro-4H-pyran-4-ylidene)methyl)pyrido[2,3-b]pyrazin-5(8H)-yl)acetamide]	
≤ 5	< 500	CCc1c(N2CCN(C(=O)c3ncnc(C)c3O)CC2)c(=O)c2nc(C=C(C)C)cnc2n1CC(=O)Nc1ccc(C(F)(F)F)cc1Cl [I-37, N-(2-chloro-4-(trifluoromethyl)phenyl)-2-(6-ethyl-7-(4-(5-hydroxy-6-methylpyrimidine-4-carbonyl)piperazin-1-yl)-2-(2-methylprop-1-en-1-yl)-8-oxopyrido[2,3-b]pyrazin-5(8H)-yl)acetamide]	
100 to 500	> 5000	CCc1c(N2CCN(C(=O)c3ncnc(C)c3O)CC2)c(=O)c2nc(CCO)cnc2n1CC(=O)Nc1ccc(C(F)(F)F)cc1Cl [I-41, N-(2-chloro-4-(trifluoromethyl)phenyl)-2-(6-ethyl-7-(4-(5-hydroxy-6-methylpyrimidine-4-carbonyl)piperazin-1-yl)-2-(2-hydroxyethyl)-8-oxopyrido[2,3-b]pyrazin-5(8H)-yl)acetamide]	
5 to 50	2000 to 5000	CCc1c(N2CCN(C(=O)c3ncnc(C)c3O)CC2)c(=O)c2nc(N3CCCCC3)cnc2n1CC(=O)Nc1ccc(C(F)(F)F)cc1Cl [I-42, N-(2-chloro-4-(trifluoromethyl)phenyl)-2-(6-ethyl-7-(4-(5-hydroxy-6-methylpyrimidine-4-carbonyl)piperazin-1-yl)-8-oxo-2-(piperidin-1-yl)pyrido[2,3-b]pyrazin-5(8H)-yl)acetamide]	
5 to 50	> 5000	CCc1c(N2CCN(C(=O)c3ncnc(C)c3O)CC2)c(=O)c2nc(N3CC(C)(O)C3)cnc2n1CC(=O)Nc1ccc(C(F)(F)F)cc1Cl [I-44, N-(2-chloro-4-(trifluoromethyl)phenyl)-2-(6-ethyl-2-(3-hydroxy-3-methylazetidin-1-yl)-7-(4-(5-hydroxy-6-methylpyrimidine-4-carbonyl)piperazin-1-yl)-8-oxopyrido[2,3-b]pyrazin-5(8H)-yl)acetamide]	
5 to 50	> 5000	CCc1c(N2CCN(C(=O)c3ncnc(C)c3O)CC2)c(=O)c2nc(N3CC(O)C3)cnc2n1CC(=O)Nc1ccc(C(F)(F)F)cc1Cl [I-45, N-(2-chloro-4-(trifluoromethyl)phenyl)-2-(6-ethyl-7-(4-(5-hydroxy-6-methylpyrimidine-4-carbonyl)piperazin-1-yl)-2-(3-hydroxyazetidin-1-yl)-8-oxopyrido[2,3-b]pyrazin-5(8H)-yl)acetamide]	
100 to 500	> 5000	CCc1c(N2CCN(C(=O)c3ncnc(C)c3O)CC2)c(=O)c2nc(C(=O)N(C)C)cnc2n1CC(=O)Nc1ccc(C(F)(F)F)cc1Cl [I-48, 5-(2-((2-chloro-4-(trifluoromethyl)phenyl)amino)-2-oxoethyl)-6-ethyl-7-(4-(5-hydroxy-6-methylpyrimidine-4-carbonyl)piperazin-1-yl)-N,N-dimethyl-8-oxo-5,8-dihydropyrido[2,3-b]pyrazine-2-carboxamide]	
50 to 100	> 5000	CCc1c(N2CCN(C(=O)c3ncnc(C)c3O)CC2)c(=O)c2nc(CN3CCOCC3)cnc2n1CC(=O)Nc1ccc(C(F)(F)F)cc1Cl [I-49, N-(2-chloro-4-(trifluoromethyl)phenyl)-2-(6-ethyl-7-(4-(5-hydroxy-6-methylpyrimidine-4-carbonyl)piperazin-1-yl)-2-(morpholinomethyl)-8-oxopyrido[2,3-b]pyrazin-5(8H)-yl)acetamide]	
